In patent US8952157B2, “Apoptosis-inducing agents for the treatment of cancer and immune and autoimmune diseases” (AbbVie Inc., priority 2008, dated 2015) one finds Ki data, which are given here for 18 compounds.

pKi: −log10 of the molar value.

For the first assay, the target named is GST-Bcl-2 (Homo sapiens (Human), UniProt P10415). Briefly: Time Resolved-Fluorescence Resonance Energy Transfer (TR-FRET) Bcl-2 binding assay.
GST-Bcl-2, sequence (P10415 whole entry): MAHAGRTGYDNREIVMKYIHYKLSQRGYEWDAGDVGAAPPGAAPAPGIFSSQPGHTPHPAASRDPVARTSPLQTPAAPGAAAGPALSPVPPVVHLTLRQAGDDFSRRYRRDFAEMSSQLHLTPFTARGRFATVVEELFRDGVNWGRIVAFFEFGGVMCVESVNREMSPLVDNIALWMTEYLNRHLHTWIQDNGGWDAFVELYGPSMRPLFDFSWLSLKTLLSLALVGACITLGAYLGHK
Conditions: not given
The protocol:
Determination of the utility of compounds having Formula (I) as binders to and inhibitors of anti-apoptotic Bcl-2 proteins was performed using the Time Resolved-Fluorescence Resonance Energy Transfer (TR-FRET) Assay. Tb-anti-GST antibody was purchased from Invitrogen (Catalog No. PV4216).
Representative compounds were serially diluted in dimethyl sulfoxide (DMSO) starting at 50 μM (2× starting concentration; 10% DMSO) and 10 μL were transferred into a 384-well plate. The samples are then mixed on a shaker for 1 minute and incubated for an additional 3 hours at room temperature. For each assay, the probe/antibody and protein/probe/antibody were included on each assay plate as negative and positive controls, respectively. Fluorescence was measured on the Envision (Perkin Elmer) using a 340/35 nm excitation filter and 520/525 (F-Bak peptide) and 495/510 nm (Tb-labeled anti-Histidine antibody) emission filters.
The samples were then mixed on a shaker for 1 minute and incubated for an additional 3 hours at room temperature. For each assay, the probe/antibody and protein/probe/antibody were included on each assay plate as negative and positive controls, respectively. Fluorescence was measured on the Envision (Perkin Elmer) using a 340/35 nm excitation filter and 520/525 (F-Bak peptide) and 495/510 nm (Tb-labeled anti-Histidine antibody) emission filters.
The inhibition constant (Ki) is the dissociation constant of an enzyme-inhibitor complex or a protein/small molecule complex, wherein the small molecule is inhibiting binding of one protein to another protein. So a large Ki value indicates a low binding affinity and a small Ki value indicates a high binding affinity.
Background: In TR-FRET formats the signal depends on donor and acceptor labels being close together.
The pKi is the negative decadic logarithm of the Ki, by convention in mol/L. Read a low pKi as a large Ki. Consider `O=C(NS(=O)(=O)c1ccc(N[C@H]2CC[C@H](N3CCOCC3)CC2)c(S(=O)(=O)C(F)(F)F)c1)c1ccc(N2CCN(CC3=C(c4ccc(Cl)cc4)CCOCC3)CC2)cc1Oc1cc2cc[nH]c2cc1Cl` [Example 314, Trans-2-[(6-chloro-1H-indol-5-yl)oxy]-4-(4-{[5-(4-chlorophenyl)-2,3,6,7-tetrahydrooxepin-4-yl]methyl}piperazin-1-yl)-N-({4-[(4-morpholin-4-ylcyclohexyl)amino]-3-[(trifluoromethyl)sulfonyl]phenyl}sulfonyl)benzamide], for which the negative logarithm of the Ki (pKi) was 8.51.

Still in this assay, the particulars now being: GST-Bcl-2 1 nM, F-Bak peptide probe 100 nM, Tb-anti-GST antibody 1 nM; Ki by Wang's equation.
`CN1CCC(Nc2ccc(S(=O)(=O)NC(=O)c3ccc(N4CCN(CC5=C(c6ccc(Cl)cc6)CC(C)(C)CC5)CC4)cc3Oc3ccccc3F)cc2[N+](=O)[O-])CC1` [Example 122, 4-(4-{[2-(4-chlorophenyl)-4,4-dimethylcyclohex-1-en-1-yl]methyl}piperazin-1-yl)-2-(2-fluorophenoxy)-N-({4-[(1-methylpiperidin-4-yl)amino]-3-nitrophenyl}sulfonyl)benzamide] showed a negative-log Ki (pKi) above 12.00.
On to `CC1(C)CCC(CN2CCN(c3ccc(C(=O)NS(=O)(=O)c4ccc(NC5CCN(CC6CC6)CC5)c([N+](=O)[O-])c4)c(Oc4cccc(Cl)c4)c3)CC2)=C(c2ccc(Cl)cc2)C1` [Example 187, 2-(3-chlorophenoxy)-4-(4-{[2-(4-chlorophenyl)-4,4-dimethylcyclohex-1-en-1-yl]methyl}piperazin-1-yl)-N-[(4-{[1-(cyclopropylmethyl)piperidin-4-yl]amino}-3-nitrophenyl)sulfonyl]benzamide], for which the pKi was 10.27.
Same read-out and setting: next, “4-(4-{[4-(4-chlorophenyl)-6,6-dimethyl-5,6-dihydro-2H-pyran-3-yl]methyl)}piperazin-1-yl)-2-[(6-fluoro-1H-indol-5-yl)oxy]-N-({4-[(4-fluorotetrahydro-2H-pyran-4-yl)methoxy]-3-nitrophenyl}sulfonyl)benzamide [Example 297]”: above 11.00; `CC1(C)CCC(CN2CCN(c3ccc(C(=O)NS(=O)(=O)c4ccc(NCC5(N)CCOCC5)c([N+](=O)[O-])c4)c(Oc4cc5cc[nH]c5cc4F)c3)CC2)=C(c2ccc(Cl)cc2)C1` [Example 248, N-[(4-{[(4-aminotetrahydro-2H-pyran-4-yl)methyl]amino}-3-nitrophenyl)sulfonyl]-4-(4-{[2-(4-chlorophenyl)-4,4-dimethylcyclohex-1-en-1-yl]methyl}piperazin-1-yl)-2-[(6-fluoro-1H-indol-5-yl)oxy]benzamide]: 10.29.
On the same count and under the same terms, the value for `CN1CCN(Nc2ccc(S(=O)(=O)NC(=O)c3ccc(N4CCN(CC5=C(c6ccc(Cl)cc6)CC(C)(C)CC5)CC4)cc3Oc3cnc(N)c(Br)c3)cc2[N+](=O)[O-])CC1` [Example 359, 2-[(6-amino-5-bromopyridin-3-yl)oxy]-4-(4-{[2-(4-chlorophenyl)-4,4-dimethylcyclohex-1-en-1-yl]methyl}piperazin-1-yl)-N-({4-[(4-methylpiperazin-1-yl)amino]-3-nitrophenyl}sulfonyl)benzamide] was 9.96.
`CC(C)(C)OC(=O)N1CCN(c2ccc(Oc3cc(N4CCN(Cc5ccccc5-c5ccc(Cl)cc5)CC4)ccc3C(=O)NS(=O)(=O)c3ccc(NCCCN4CCOCC4)c([N+](=O)[O-])c3)cc2)CC1` [Example 97, tert-butyl 4-(4-(5-(4-((4′-chloro-1,1′-biphenyl-2-yl)methyl)piperazin-1-yl)-2-((((4-((3-morpholin-4-ylpropyl)amino)-3-nitrophenyl)sulfonyl)amino)carbonyl)phenoxy)phenyl)piperazine-1-carboxylate] gave a negative logarithm of the Ki (pKi) of 6.83. This pKi lies 3.13 log units lower than the previous one.
As for `CN1CCC(Nc2ccc(S(=O)(=O)NC(=O)c3ccc(N4CCN(CC5=C(c6ccc(Cl)cc6)CC(C)(C)CC5)CC4)cc3Oc3cc(F)cc4[nH]ccc34)cc2[N+](=O)[O-])CC1` [Example 209, 4-(4-{[2-(4-chlorophenyl)-4,4-dimethylcyclohex-1-en-1-yl]methyl}piperazin-1-yl)-2-[(6-fluoro-1H-indol-4-yl)oxy]-N-({4-[(1-methylpiperidin-4-yl)amino]-3-nitrophenyl}sulfonyl)benzamide], the pKi was above 11.00.
Regarding `CN(C)CCCNc1ccc(S(=O)(=O)NC(=O)c2ccc(N3CCN(Cc4ccccc4-c4ccc(Cl)cc4)CC3)cc2Oc2cccc3c2ccn3C)cc1[N+](=O)[O-]` [Example 16, 4-(4-((4′-chloro-1,1′-biphenyl-2-yl)methyl)piperazin-1-yl)-N-((4-((3-(dimethylamino)propyl)amino)-3-nitrophenyl)sulfonyl)-2-((1-methyl-1H-indol-4-yl)oxy)benzamide], the pKi was 8.52.
The compound `CN(C)C1CCC(Nc2ccc(S(=O)(=O)NC(=O)c3ccc(N4CCN(CC5=C(c6ccc(Cl)cc6)CC(C)(C)CC5)CC4)cc3Oc3cccc(Cl)c3)cc2[N+](=O)[O-])CC1` (stereo not drawn) [Example 203, 2-(3-chlorophenoxy)-4-(4-{[2-(4-chlorophenyl)-4,4-dimethylcyclohex-1-en-1-yl]methyl}piperazin-1-yl)-N-[(4-{[4-(dimethylamino)cyclohexyl]amino}-3-nitrophenyl)sulfonyl]benzamide] gave a pKi of 10.08. Compared with the last compound, the pKi is 1.56 log units higher.
Regarding `CC1(C)CCC(CN2CCN(c3ccc(C(=O)NS(=O)(=O)c4ccc(NCCCN5CCNC(=O)C5)c([N+](=O)[O-])c4)c(Oc4cc(F)cc5[nH]ccc45)c3)CC2)=C(c2ccc(Cl)cc2)C1` [Example 257, 4-(4-{[2-(4-chlorophenyl)-4,4-dimethylcyclohex-1-en-1-yl]methyl}piperazin-1-yl)-2-[(6-fluoro-1H-indol-4-yl)oxy]-N-[(3-nitro-4-{[3-(3-oxopiperazin-1-yl)propyl]amino}phenyl)sulfonyl]benzamide], the pKi was 10.01.
`CN(C)CCCNc1ccc(S(=O)(=O)NC(=O)c2ccc(N3CCN(Cc4ccccc4-c4ccc(Cl)cc4)CC3)cc2Oc2cccc(Cl)c2)cc1[N+](=O)[O-]` [Example 14, 4-(4-((4′-chloro-1,1′-biphenyl-2-yl)methyl)piperazin-1-yl)-2-(3-chlorophenoxy)-N-((4-((3-(dimethylamino)propyl)amino)-3-nitrophenyl)sulfonyl)benzamide] gave a negative logarithm of the Ki (pKi) of 10.10.
Turning to `CC(c1ccccc1-c1ccc(Cl)cc1)N1CCN(c2ccc(C(=O)NS(=O)(=O)c3ccc(NCC4CCOCC4)c([N+](=O)[O-])c3)c(Oc3ccccc3Cl)c2)CC1` (stereo not drawn) [Example 110, 4-{4-[1-(4′-chloro-1,1′-biphenyl-2-yl)ethyl]piperazin-1-yl}-2-(2-chlorophenoxy)-N-({3-nitro-4-[(tetrahydro-2H-pyran-4-ylmethyl)amino]phenyl}sulfonyl)benzamide], the negative-log Ki (pKi) is 10.41.
Same read-out and setting: the value for `CC1(C)CCC(CN2CCN(c3ccc(C(=O)NS(=O)(=O)c4ccc(OCC5CCOCC5)c([N+](=O)[O-])c4)c(Oc4cc5cc[nH]c5cc4F)c3)CC2)=C(c2ccc(Cl)cc2)C1` [Example 264, 4-(4-{[2-(4-chlorophenyl)-4,4-dimethylcyclohex-1-en-1-yl]methyl}piperazin-1-yl)-2-[(6-fluoro-1H-indol-5-yl)oxy]-N-{[3-nitro-4-(tetrahydro-2H-pyran-4-ylmethoxy)phenyl]sulfonyl}benzamide] was 10.17.
With `CC1(C)CCC(CN2CCN(c3ccc(C(=O)NS(=O)(=O)c4ccc(NCC5CCOCC5)c([N+](=O)[O-])c4)c(Oc4cc(Br)nc(NC(=O)OC(C)(C)C)c4)c3)CC2)=C(c2ccc(Cl)cc2)C1` [Example 372, tert-butyl 6-bromo-4-(5-(4-{[2-(4-chlorophenyl)-4,4-dimethylcyclohex-1-en-1-yl]methyl}piperazin-1-yl)-2-{[({3-nitro-4-[(tetrahydro-2H-pyran-4-ylmethyl)amino]phenyl}sulfonyl)amino]carbonyl}phenoxy)pyridin-2-ylcarbamate], the pKi is 7.82.
Compound `CN1CCC(Nc2ccc(S(=O)(=O)NC(=O)c3ccc(N4CCN(CC5=C(c6ccc(Cl)cc6)CC(C)(C)CC5)CC4)cc3Oc3cc4cc[nH]c4c(F)c3F)cc2[N+](=O)[O-])CC1` [Example 200, 4-(4-{[2-(4-chlorophenyl)-4,4-dimethylcyclohex-1-en-1-yl]methyl}piperazin-1-yl)-2-[(6,7-difluoro-1H-indol-5-yl)oxy]-N-({4-[(1-methylpiperidin-4-yl)amino]-3-nitrophenyl}sulfonyl)benzamide] gave a pKi of 10.09.
The compound `CC1(C)CC(c2ccc(Cl)cc2)=C(CN2CCN(c3ccc(C(=O)NS(=O)(=O)c4cnc(OCC5(F)CCOCC5)c(Cl)c4)c(Oc4cc5cc[nH]c5cc4F)c3)CC2)CO1` [Example 388, N-({5-chloro-6-[(4-fluorotetrahydro-2H-pyran-4-yl)methoxy]pyridin-3-yl}sulfonyl)-4-(4-{[4-(4-chlorophenyl)-6,6-dimethyl-5,6-dihydro-2H-pyran-3-yl]methyl}piperazin-1-yl)-2-[(6-fluoro-1H-indol-5-yl)oxy]benzamide] showed a pKi of 10.70.
`CC1(C)CCC(CN2CCN(c3ccc(C(=O)NS(=O)(=O)c4ccc(NC5CCN(C6CCOCC6)CC5)c([N+](=O)[O-])c4)c(Oc4ccccc4F)c3)CC2)=C(c2ccc(Cl)cc2)C1` [Example 124, 4-(4-{[2-(4-chlorophenyl)-4,4-dimethylcyclohex-1-en-1-yl]methyl}piperazin-1-yl)-2-(2-fluorophenoxy)-N-({3-nitro-4-[(1-tetrahydro-2H-pyran-4-ylpiperidin-4-yl)amino]phenyl}sulfonyl)benzamide] had a negative-log Ki (pKi) of 10.48.
